# Laboratory results taken from PMC7251097, “Aspartate/asparagine-β-hydroxylase: a high-throughput mass spectrometric assay for discovery of small molecule inhibitors” (Scientific Reports, 2020).
# Counter-ions that a name gives are not always drawn. Like-named read-outs stand apart in the source and are kept apart here.
# Biological target: T1, His6-AspH315–758 (human aspartate/asparagine-β-hydroxylase, AspH) (Homo sapiens, UniProt Q12797)
# T1 construct: N-Terminally His6-tagged human AspH315–758 (His6-AspH315–758) was produced in E. coli BL21 (DE3) cells; made in house; host or cells: E. coli BL21 (DE3), pET-28a(+) vector
# T1 sequence (Q12797 315-758): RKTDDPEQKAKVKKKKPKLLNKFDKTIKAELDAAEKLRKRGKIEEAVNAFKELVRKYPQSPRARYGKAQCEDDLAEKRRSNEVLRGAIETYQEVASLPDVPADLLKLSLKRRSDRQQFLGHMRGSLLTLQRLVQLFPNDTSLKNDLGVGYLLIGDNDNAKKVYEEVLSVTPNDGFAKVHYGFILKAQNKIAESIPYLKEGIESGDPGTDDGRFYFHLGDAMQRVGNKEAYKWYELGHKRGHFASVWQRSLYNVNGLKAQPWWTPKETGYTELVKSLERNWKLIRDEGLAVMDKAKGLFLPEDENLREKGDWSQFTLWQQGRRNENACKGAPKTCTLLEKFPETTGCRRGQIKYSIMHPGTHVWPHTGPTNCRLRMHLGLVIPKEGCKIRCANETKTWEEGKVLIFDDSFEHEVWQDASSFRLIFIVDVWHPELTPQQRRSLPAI
# Test: SPE-MS AspH inhibition assay (LOPAC screen at fixed 20 μM and IC50 dose-response), hydroxylation of cyclic peptide hFX-CP101–119
# Assay type: biochemical
# Details: for IC50: 50 nM His6-AspH315–758, 1.0 μM hFX-CP101–119, 3 μM 2OG, 2 μM Fe(II), 50 mM HEPES pH 7.5, 20 °C, mean ± SD, n = 2 (2,4-PDCA n = 10), read-out: IC50
# [1] = LOPAC compound at fixed 20 uM, plate 1, normalised to DMSO and 2,4-PDCA controls
# [2] = LOPAC compound at fixed 20 uM, substrate conversion, plate 1
# [3] = LOPAC compound at 20uM, plate 2, conversion of substrate peptide
# [4] = LOPAC compound at 20uM, plate 2, normalised to DMSO and 2,4-PDCA controls, read-out: Plate 2 (% inhibition)
# [5] = LOPAC Plate 4, compound at 20 uM, substrate conversion
# [6] = LOPAC Plate 4, compound at 20 uM, read-out: % inhibition
# [7] = LOPAC compound at 20uM, plate 3, conversion of substrate peptide
# [8] = LOPAC compound at 20uM, plate 2, normalised to DMSO and 2,4-PDCA controls
compound,measurement,setting,value
COC(=O)C1=C(C)NC(C)=C(C(=O)OC(C)(C)CN(C)CCC(c2ccccc2)c2ccccc2)C1c1cccc([N+](=O)[O-])c1.COC(=O)C1=C(C)NC(C)=C(C(=O)OC(C)(C)CN(C)CCC(c2ccccc2)c2ccccc2)C1c1cccc([N+](=O)[O-])c1.Cl.Cl.O (stereo not shown) [Lercanidipine hydrochloride hemihydrate],Plate 1 (% inhibition),[1],25.41%
same,Plate 1 (% conversion),[2],27.34%
COc1cccc(OC)c1OCCNCC1CSc2ccccc2O1 (stereo not shown) [Benoxathian hydrochloride],Plate 1 (% inhibition),[1],-17.92%
same,Plate 1 (% conversion),[2],41.89%
CC(=O)NCCc1c[nH]c2ccccc12 [N-Acetyltryptamine],Plate 1 (% inhibition),[1],-6.27%
same,Plate 1 (% conversion),[2],37.98%
NC(=O)c1ccccc1 [Benzamide],Plate 1 (% inhibition),[1],-4.66%
same,Plate 1 (% conversion),[2],37.44%
NC(=O)CC[C@H](N)C(=O)O [L-Glutamine],Plate 2 (% conversion),[3],35.03%
same,inhibition at 20 µM,[4],2.77%
COc1ccc(CCN(C)CCc2ccc(OC)c(OC)c2)cc1OC.Cl [YS-035 hydrochloride],% inhibition,"LOPAC Plate 4, compound at 20 uM",-13.70%
same,% conversion,[5],41.15%
CC1=C(/C=C/C(C)=C/C=C/C(C)=C/C(=O)O)C(C)(C)CCC1 [Retinoic acid],% conversion,[5],30.58%
same,inhibition at 20 µM,[6],17.2%
CC(=O)N[C@@H](CS)C(=O)O [N-Acetyl-L-Cysteine],Plate 1 (% inhibition),[1],6.30%
same,Plate 1 (% conversion),[2],33.76%
Nc1ccc(S(=O)(=O)Nc2ccnn2-c2ccccc2)cc1 [Sulfaphenazole],% conversion,[5],26.59%
CN1CCC[C@@H]1Cc1c[nH]c2ccc(Nc3ncccc3[N+](=O)[O-])cc12 [CP-135807],% conversion,,37.42%
same,Plate 5 (% conversion),,32.28%
same,Plate 5 (% inhibition),,11.85%
Brc1ccc([C@H]2CN3CCSC3=N2)cc1.O=C(O)C(=O)O [S(-)-p-Bromotetramisole oxalate],Plate 1 (% inhibition),[1],75.43%
same,Plate 1 (% conversion),[2],10.54%
"COC1=C(OC)C(=O)c2ccccc2C1=O [2,3-Dimethoxy-1,4-naphthoquinone]",Plate 2 (% conversion),,33.76%
same,Plate 2 (% inhibition),20 µM,6.56%
C[N+]1(C)CCN(c2ccccc2)CC1.[I-],Plate 2 (% conversion),,36.09%
same,Plate 2 (% inhibition),20 µM,-0.39%
CC(=O)S[C@@H]1CC2=CC(=O)CC[C@]2(C)[C@H]2CC[C@@]3(C)[C@@H](CC[C@@]34CCC(=O)O4)[C@H]12 [Spironolactone],% conversion,[5],41.84%
same,inhibition at 20 µM,[6],-15.7%
CCOC(=O)c1cnc2c(cnn2CC)c1NN=C(C)C [Etazolate hydrochloride],Plate 2 (% conversion),[3],58.51%
same,inhibition at 20 µM,[4],-67.4%
"O=c1c2ccccc2[se]n1-c1ccccc1 [Ebselen, ebselen, reference compound]",IC50,,120 ± 10 nM
COc1cc(OC)c(C=C2C(O)=Nc3ccccc32)c(OC)c1 [IC 261],% conversion,,29.42%
"O=C(O)c1ccc(-n2nc(-c3ccccc3O)nc2-c2ccccc2O)cc1 [Deferasirox, reference compound]",IC50,,2080 ± 810 nM
(±)-Atenolol,Plate 1 (% inhibition),[1],7.50%
CN(Cc1cnc2nc(N)nc(N)c2n1)c1ccc(C(=O)N[C@@H](CCC(=O)O)C(=O)O)cc1.O [Methotrexate hydrate],Plate 1 (% inhibition),[1],-3.72%
same,Plate 1 (% conversion),[2],37.12%
CP(=O)(O)C1=CCNCC1 [TPMPA],% conversion,,27.88%
CN1CC(=O)NC1=NC(=O)Nc1cccc(Cl)c1 [Fenobam],Plate 3 (% conversion),[7],36.37%
NC12CC3CC(CC(C3)C1)C2 [Amantadine hydrochloride],Plate 1 (% inhibition),[1],-1.83%
same,Plate 1 (% conversion),[2],36.49%
COc1cc(SC)ccc1C(=O)N1CCC(Cc2ccccc2)CC1 [JX401],Plate 2 (% conversion),[3],45.70%
same,Plate 2 (% inhibition),[8],-29.09%
Cl.N#Cc1ccc(N2CCN(C(=O)COc3ccc4[nH]cc(CCN)c4c3)CC2)cc1 [Donitriptan monohydrochloride],Plate 2 (% conversion),[3],23.20%
same,Plate 2 (% inhibition),[8],38.09%
CN1CCN(C2=Nc3cc(Cl)ccc3Nc3ccccc32)CC1 [Clozapine],Plate 1 (% conversion),,39.79%
same,Plate 1 (% inhibition),[1],-11.65%
COc1ccccc1OCC(O)CN1CCN(CC(=O)Nc2c(C)cccc2C)CC1 (stereo not shown) [Ranolazine dihydrochloride],% conversion,[5],41.52%
same,inhibition at 20 µM,[6],-14.8%
CNC(=O)c1cc2c(cn1)[nH]c1ccccc12 [N-Methyl-beta-carboline-3-carboxamide],Plate 2 (% conversion),[3],36.80%
same,Plate 2 (% inhibition),[8],-2.54%
Nc1nc(N)c2nc(-c3ccccc3)c(N)nc2n1 [Triamterene],% conversion,[5],36.11%
C=C(C)[C@H]1CC=C(C(=O)O)CC1 [(-)-Perillic acid],% conversion,[5],29.82%
COc1cc(CC(=O)O)ccc1O [4-Hydroxy-3-methoxyphenylacetic acid],Plate 2 (% conversion),,38.57%
same,Plate 2 (% inhibition),20 µM,-7.80%
CC(N)Cc1c[nH]c2ccc(OCc3cccs3)cc12 (stereo not shown) [BW 723C86],Plate 3 (% conversion),,36.52%
CNCC[C@H](Oc1ccc(C(F)(F)F)cc1)c1ccccc1.Cl [S-(+)-Fluoxetine hydrochloride],Plate 2 (% conversion),,45.11%
same,Plate 2 (% inhibition),20 µM,-27.34%
CC(C)c1cccc(C(C)C)c1O [Propofol],Plate 2 (% conversion),,38.08%
same,inhibition at 20 µM,read-out: Plate 2 (% inhibition),-6.34%
CN(C)CCC(c1ccc(Br)cc1)c1ccccn1.O=C(O)/C=C\C(=O)O (racemic) [(±)-Brompheniramine maleate],Plate 1 (% inhibition),[1],8.96%
same,Plate 1 (% conversion),[2],32.86%
Cl.Clc1cc(I)cc(Cl)c1NC1=NCCN1 [p-Iodoclonidine hydrochloride],Plate 3 (% conversion),[7],40.33%
CCN1CCc2nc(N)oc2CC1.Cl.Cl [B-HT 933 dihydrochloride],Plate 1 (% inhibition),[1],-9.80%
same,Plate 1 (% conversion),[2],39.16%
"Ic1ccccc1CNC1C2CCN(CC2)C1C(c1ccccc1)c1ccccc1.O=C(O)C(=O)O [L-703,606 oxalate salt hydrate]",Plate 3 (% conversion),,12.64%
Oc1ccccc1O [Pyrocatechol],Plate 1 (% conversion),,10.12%
same,Plate 1 (% inhibition),[1],76.68%
CCCN(CCC)C(=O)C(CCC(=O)O)NC(=O)c1ccccc1 (stereo not shown) [Proglumide],Plate 3 (% conversion),[7],27.88%
CC(=O)Oc1ccccc1C(=O)O [Acetylsalicylic acid],Plate 1 (% inhibition),[1],-0.51%
same,Plate 1 (% conversion),[2],36.04%
"O=c1c(O)c(-c2ccc(O)cc2O)oc2cc(O)cc(O)c12 [Morin, reference compound]",inhibition at 20 µM,"AspH activity, fixed compound concentration 20 μM, initial LOPAC screen, 0.5%v/v DMSO, read-out: Inhibition at 20 µM [%]",101%
CC(C)(C)c1ccc(S(=O)(=O)/C=C/C#N)cc1 [Bay 11-7085],Plate 1 (% conversion),,32.72%
same,Plate 1 (% inhibition),,9.38%
Cl.Cn1ccc2cc(NC(=O)Nc3cccnc3)ccc21 [SB 200646 hydrochloride],Plate 1 (% inhibition),[1],-6.42%
same,Plate 1 (% conversion),[2],38.03%
CC(N)(Cc1ccc(O)c(O)c1)C(=O)O (racemic),Plate 3 (% conversion),[7],9.94%
CC1=C(CC(=O)O)c2cc(F)ccc2/C1=C\c1ccc(S(C)(=O)=O)cc1 [Sulindac sulfone],% conversion,[5],33.98%
COc1ccc(CCN(C)CCCC(C#N)(c2ccc(OC)c(OC)c2)C(C)C)cc1OC.Cl (racemic) [(±)-Verapamil hydrochloride],% conversion,,42.64%
same,% inhibition,20 µM,-18.08%
CNC(=C[N+](=O)[O-])NCCSCc1ccc(CN(C)C)o1 [Ranitidine hydrochloride],% conversion,[5],37.20%
same,inhibition at 20 µM,[6],-2.13%
CCN(CC)CCn1c(=O)c(Cc2ccc(OC)cc2)nc2ccccc21.Cl [Caroverine hydrochloride],% conversion,[5],34.53%
CN(C)c1nc(N(C)C)nc(N(C)C)n1 [Altretamine],Plate 1 (% inhibition),[1],-0.35%
same,Plate 1 (% conversion),[2],35.99%
CCCCCCCCCC(=O)NC(CN1CCOCC1)[C@H](O)c1ccccc1.Cl (mixture of isomers),% conversion,[5],45.09%
"Br.CN1[C@@H]2CC(OC(=O)[C@H](CO)c3ccccc3)C[C@H]1[C@@H]1O[C@@H]12 (single isomer, unassigned; (-)) [(-)-Scopolamine hydrobromide]",% inhibition,20 µM,-9.71%
C1COC(NC(C2CC2)C2CC2)=N1 [Rilmenidine hemifumarate],% conversion,[5],24.79%
NCCCCN=C(N)N [Agmatine sulfate],Plate 1 (% conversion),,36.66%
same,Plate 1 (% inhibition),[1],-2.35%
COCCc1ccc(OCC(O)CNC(C)C)cc1.O=C(O)C(O)C(O)C(=O)O (racemic) [(±)-Metoprolol (+)-tartrate],Plate 3 (% conversion),[7],16.57%
CCCCCCCCCCCCCC(=O)O[C@@H]1[C@@H](C)[C@@]2(O)[C@@H](C=C(CO)C[C@]3(O)C(=O)C(C)=C[C@@H]23)[C@@H]2C(C)(C)[C@]12OC(C)=O [Phorbol 12-myristate 13-acetate],% conversion,,39.27%
